Experimental data from patent US8802597B2, “Herbicidal pyrimidines” (E I du Pont de Nemours and Company, priority 2003, dated 2014).
Like-named read-outs stand apart in the source and are kept apart here.

What was measured:
Assay type in all cases: in vivo
[1] = tested on: barnyardgrass (Echinochloa crus-galli); assay: Test A pre/postemergence; conditions: Echinochloa crus-galli, 240 h, read-out: Plant response rating, Barnyardgrass; for pest or weed control at 125 g/ha: 125 g ai/ha; for pest or weed control at 500 g/ha: 500 g ai/ha
Method in brief: (§1)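 Greenhouse herbicide test with preemergence directed soil spray and postemergence foliar spray at the 1- to 2-leaf stage; visual control rating 0–100 versus untreated at ~10 days.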

[2] = tested on: crabgrass (Digitaria sanguinalis); assay: Test A pre/postemergence; conditions: Digitaria sanguinalis, 240 h, read-out: Plant response rating, Crabgrass; for pest or weed control at 125 g/ha: 125 g ai/ha; for pest or weed control at 500 g/ha: 500 g ai/ha
Method in brief: as §1

[3] = tested on: giant foxtail (Setaria faberi); assay: Test A pre/postemergence; conditions: Setaria faberi, 240 h, read-out: Plant response rating, Foxtail, Giant; for pest or weed control at 125 g/ha: 125 g ai/ha; for pest or weed control at 500 g/ha: 500 g ai/ha
Method in brief: as §1

[4] = tested on: morningglory (Ipomoea spp.); assay: Test A pre/postemergence; conditions: Ipomoea, 240 h, read-out: Plant response rating, Morningglory; for pest or weed control at 125 g/ha: 125 g ai/ha; for pest or weed control at 500 g/ha: 500 g ai/ha
Method in brief: as §1

[5] = tested on: redroot pigweed (Amaranthus retroflexus); assay: Test A pre/postemergence; conditions: Amaranthus retroflexus, 240 h, read-out: Plant response rating, Pigweed; for pest or weed control at 125 g/ha: 125 g ai/ha; for pest or weed control at 500 g/ha: 500 g ai/ha
Method in brief: as §1

[6] = tested on: velvetleaf (Abutilon theophrasti); assay: Test A pre/postemergence; conditions: Abutilon theophrasti, 240 h, read-out: Plant response rating, Velvetleaf; for pest or weed control at 125 g/ha: 125 g ai/ha; for pest or weed control at 500 g/ha: 500 g ai/ha
Method in brief: as §1

[7] = tested on: cocklebur (Xanthium strumarium); assay: Test C pre/postemergence; conditions: Xanthium strumarium; for pest or weed control at 16 g/ha: 16 g ai/ha; for pest or weed control at 31 g/ha: 31 g ai/ha; for pest or weed control at 62 g/ha: 62 g ai/ha; for pest or weed control at 125 g/ha: 125 g ai/ha
Method in brief: (§2)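 Pre: seeds planted, sprayed same day. Post: 1- to 4-leaf plants (2–18 cm). Formulation: non-phytotoxic solvent + surfactant. Greenhouse 12–14 d; visual % control vs untreated, 0–100.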

[8] = tested on: common ragweed (Ambrosia elatior); assay: Test C pre/postemergence; conditions: Ambrosia artemisiifolia; for pest or weed control at 16 g/ha: 16 g ai/ha; for pest or weed control at 31 g/ha: 31 g ai/ha; for pest or weed control at 62 g/ha: 62 g ai/ha
Method in brief: as §2

corn (Zea mays) = assay: Test C pre/postemergence; conditions: Zea mays; for Corn plant response rating (crop injury, 0 = no effect, 100 = complete kill) at 16 g/ha: 16 g ai/ha; for Corn plant response rating (crop injury, 0 = no effect, 100 = complete kill) at 31 g/ha: 31 g ai/ha; for Corn plant response rating (crop injury, 0 = no effect, 100 = complete kill) at 62 g/ha: 62 g ai/ha; for Corn plant response rating (crop injury, 0 = no effect, 100 = complete kill) at 125 g/ha: 125 g ai/ha
Method in brief: as §2

[9] = tested on: lambsquarters (Chenopodium album); assay: Test C pre/postemergence; conditions: Chenopodium album; for pest or weed control at 16 g/ha: 16 g ai/ha; for pest or weed control at 31 g/ha: 31 g ai/ha; for pest or weed control at 62 g/ha: 62 g ai/ha; for pest or weed control at 125 g/ha: 125 g ai/ha
Method in brief: as §2

[10] = tested on: chickweed (Stellaria media); assay: Test C postemergence; conditions: Stellaria media, post-emergence
Method in brief: as §2

[11] = post-emergence, Postemergence, 0 to 100 scale (0 no effect, 100 complete control)
[12] = pre-emergence, Preemergence, 0 to 100 scale where 0 is no effect and 100 is complete control, approximately ten days
[13] = post-emergence, Postemergence, read-out: Plant response rating (scale of 0 to 100), Cocklebur
[14] = pre-emergence, Preemergence, scale 0 to 100, 0 no effect, 100 complete control, read-out: Plant response rating, Cocklebur
[15] = post-emergence, Postemergence, read-out: Plant response rating (scale of 0 to 100), Ragweed
[16] = pre-emergence, Preemergence, scale 0 to 100, 0 no effect, 100 complete control, read-out: Plant response rating, Ragweed
[17] = post-emergence, Postemergence, read-out: Plant response rating (scale of 0 to 100), Corn
[18] = pre-emergence, Preemergence, scale 0 to 100, 0 no effect, 100 complete control, read-out: Plant response rating, Corn
[19] = post-emergence, Postemergence, read-out: Plant response rating (scale of 0 to 100), Lambsquarters
[20] = pre-emergence, Preemergence, scale 0 to 100, 0 no effect, 100 complete control, read-out: Plant response rating, Lambsquarters

**Q.** For `Nc1nc(-c2ccc(Cl)cc2)nc(C(=O)O)c1Cl` [Compound 65, 6-amino-5-chloro-2-(4-chlorophenyl)-4-pyrimidinecarboxylic acid], which pest or weed control at 125 g/ha [1, 11] is on record?
**A.** 85%

**Q.** And the pest or weed control at 500 g/ha [1, 11]?
**A.** 85%

**Q.** And the pest or weed control at 125 g/ha [1, 12]?
**A.** 50%

**Q.** And the pest or weed control at 500 g/ha [1, 12]?
**A.** 90%

**Q.** What about the pest or weed control at 125 g/ha [2, 11] of the same compound?
**A.** 55%

**Q.** And the pest or weed control at 500 g/ha [2, 11]?
**A.** 80%

**Q.** And the pest or weed control at 125 g/ha [2, 12]?
**A.** 60%

**Q.** What about the pest or weed control at 500 g/ha [2, 12] of the same compound?
**A.** 90%

**Q.** And the pest or weed control at 125 g/ha [3, 11]?
**A.** 85%

**Q.** And the pest or weed control at 500 g/ha [3, 11]?
**A.** 95%

**Q.** What about the pest or weed control at 125 g/ha [3, 12] of the same compound?
**A.** 40%

**Q.** And the pest or weed control at 500 g/ha [3, 12]?
**A.** 80%

**Q.** And the pest or weed control at 125 g/ha [4, 11]?
**A.** 75%

**Q.** And the pest or weed control at 500 g/ha [4, 11]?
**A.** 95%

**Q.** What about the pest or weed control at 125 g/ha [4, 12] of the same compound?
**A.** 25%

**Q.** What about the pest or weed control at 500 g/ha [4, 12] of the same compound?
**A.** 90%

**Q.** And the pest or weed control at 125 g/ha [5, 11]?
**A.** 100%

**Q.** What about the pest or weed control at 500 g/ha [5, 11] of the same compound?
**A.** 100%

**Q.** What about the pest or weed control at 125 g/ha [5, 12] of the same compound?
**A.** 100%

**Q.** And the pest or weed control at 500 g/ha [5, 12]?
**A.** 100%

**Q.** And the pest or weed control at 125 g/ha [6, 11]?
**A.** 95%

**Q.** What about the pest or weed control at 500 g/ha [6, 11] of the same compound?
**A.** 100%

**Q.** What about the pest or weed control at 125 g/ha [6, 12] of the same compound?
**A.** 55%

**Q.** What about the pest or weed control at 500 g/ha [6, 12] of the same compound?
**A.** 95%

**Q.** What about the pest or weed control at 16 g/ha [7, 13] of the same compound?
**A.** 90%

**Q.** What about the pest or weed control at 31 g/ha [7, 13] of the same compound?
**A.** 100%

**Q.** What about the pest or weed control at 62 g/ha [7, 13] of the same compound?
**A.** 100%

**Q.** And the pest or weed control at 125 g/ha ([7]; post-emergence, Postemergence, scale 0 to 100 (0 no effect, 100 complete control), read-out: Cocklebur plant response rating)?
**A.** 100%

**Q.** And the pest or weed control at 16 g/ha [7, 14]?
**A.** 0%

**Q.** And the pest or weed control at 31 g/ha [7, 14]?
**A.** 30%

**Q.** What about the pest or weed control at 62 g/ha [7, 14] of the same compound?
**A.** 50%

**Q.** And the pest or weed control at 125 g/ha ([7]; pre-emergence, Preemergence, scale 0 to 100, read-out: Plant response rating, Cocklebur)?
**A.** 90%

**Q.** And the pest or weed control at 16 g/ha [8, 15]?
**A.** 80%

**Q.** What about the pest or weed control at 31 g/ha [8, 15] of the same compound?
**A.** 90%

**Q.** And the pest or weed control at 62 g/ha [8, 15]?
**A.** 95%

**Q.** What about the pest or weed control at 125 g/ha ([8]; post-emergence, Postemergence, 125 g ai/ha, scale 0 to 100 (0 no effect, 100 complete control), read-out: Ragweed plant response rating) of the same compound?
**A.** 95%

**Q.** What about the pest or weed control at 16 g/ha [8, 16] of the same compound?
**A.** 85%

**Q.** And the pest or weed control at 31 g/ha [8, 16]?
**A.** 85%

**Q.** What about the pest or weed control at 62 g/ha [8, 16] of the same compound?
**A.** 90%

**Q.** And the Corn plant response rating (crop injury, 0 = no effect, 100 = complete kill) at 16 g/ha (corn (Zea mays); [17])?
**A.** 5%

**Q.** What about the Corn plant response rating (crop injury, 0 = no effect, 100 = complete kill) at 31 g/ha (corn (Zea mays); [17]) of the same compound?
**A.** 90%

**Q.** And the Corn plant response rating (crop injury, 0 = no effect, 100 = complete kill) at 62 g/ha (corn (Zea mays); [17])?
**A.** 90%

**Q.** What about the Corn plant response rating (crop injury, 0 = no effect, 100 = complete kill) at 125 g/ha (corn (Zea mays); post-emergence, Postemergence, scale 0 to 100 (0 no effect, 100 complete control), read-out: Corn plant response rating) of the same compound?
**A.** 90%

**Q.** And the Corn plant response rating (crop injury, 0 = no effect, 100 = complete kill) at 16 g/ha (corn (Zea mays); [18])?
**A.** 0%

**Q.** What about the Corn plant response rating (crop injury, 0 = no effect, 100 = complete kill) at 31 g/ha (corn (Zea mays); [18]) of the same compound?
**A.** 0%

**Q.** What about the Corn plant response rating (crop injury, 0 = no effect, 100 = complete kill) at 62 g/ha (corn (Zea mays); [18]) of the same compound?
**A.** 0%

**Q.** And the Corn plant response rating (crop injury, 0 = no effect, 100 = complete kill) at 125 g/ha (corn (Zea mays); pre-emergence, Preemergence, scale 0 to 100, read-out: Plant response rating, Corn)?
**A.** 30%

**Q.** What about the pest or weed control at 16 g/ha [9, 19] of the same compound?
**A.** 85%

**Q.** And the pest or weed control at 31 g/ha [9, 19]?
**A.** 90%

**Q.** What about the pest or weed control at 62 g/ha [9, 19] of the same compound?
**A.** 90%

**Q.** And the pest or weed control at 125 g/ha ([9]; post-emergence, Postemergence, scale 0 to 100 (0 no effect, 100 complete control), read-out: Lambsquarters plant response rating)?
**A.** 95%

**Q.** What about the pest or weed control at 16 g/ha [9, 20] of the same compound?
**A.** 0%

**Q.** And the pest or weed control at 31 g/ha [9, 20]?
**A.** 50%

**Q.** And the pest or weed control at 62 g/ha [9, 20]?
**A.** 80%

**Q.** What about the pest or weed control at 125 g/ha ([9]; pre-emergence, Preemergence, scale 0 to 100, read-out: Plant response rating, Lambsquarters) of the same compound?
**A.** 100%

**Q.** And the pest or weed control at 16 g/ha ([10]; 16 g ai/ha, read-out: Plant response rating (scale of 0 to 100), Chickweed)?
**A.** 60%

**Q.** And the pest or weed control at 31 g/ha ([10]; 31 g ai/ha, read-out: Plant response rating (scale of 0 to 100), Chickweed)?
**A.** 60%

**Q.** And the pest or weed control at 62 g/ha ([10]; 62 g ai/ha, read-out: Plant response rating (scale of 0 to 100), Chickweed)?
**A.** 60%

**Q.** What about the pest or weed control at 125 g/ha ([10]; 125 g ai/ha, scale 0 to 100 (0 no effect, 100 complete control), read-out: Chickweed plant response rating) of the same compound?
**A.** 70%
